Assay results: patent EP0394283B1, “USE OF A TRIPEPTIDE FOR THE PREPARATION OF PHARMACEUTICAL COMPOSITIONS AND A PHARMACEUTICAL COMPOSITION AND METHOD” (Hafslund Nycomed AS, priority 1987, dated 1992)
Residues, ends and D or L forms follow the SMILES beside them.

Tested on: large intestinal epithelium
Test: Mitotic rate (Colcemid-arrested metaphases per 500 crypt cells) in the large intestinal epithelium after i.p. injection
Assay type: in vivo, hairless mice
Conditions: dose of 10⁻¹² mole per animal, at the doses and times tested
Experimental: All in vivo experiments were performed with hairless mice at 0800-0900 AM. The fractions were suspended in distilled water, slightly acidified (pH=6) and injected i.p. at different doses dependent on the purity of the fraction. The controls received solvent only. The pattern of cell proliferation after injecting the peptide was examined by varying the time between treatment and sacrifice.
Two hours before sacrifice (except for the experiments testing tissue specificity in the kidney) all animals received Colcemid 0.15 mg per animal i.p. ³HTdR (tritiated thymidine) was injected 30 minutes before sacrifice (30 µCi per animal i.p.). […]
Mitotic rate: After routine dehydration and paraffin embedding, sections were cut at 5 µm and stained with haematoxylin. Colcemid-arrested mitoses per 500 crypt cells were determined in ten longitudinally cut crypts in ileum and colon. […] The number of accumulated metaphases in epidermis was determined by counting 25 vision fields of interfollicular epidermis (eyepiece 12.5, objective 40) and expressed as mitoses per vision field per 2h.

O=C(O)CC[C@H](NC(=O)[C@@H]1CCC(=O)N1)C(=O)N[C@@H](CC(=O)O)C(=O)N[C@@H](CO)C(=O)NCC(=O)O [pGlu-Glu-Asp-Ser-Gly(OH)] (HELM PEPTIDE1{[Glp].E.D.S.G}$$$$V2.0)
cell proliferation in the large intestinal epithelium: unchanged
